Results taken from patent publication US20260285850A1, “SUBSTITUTED OXAZOLIDINONES AND IMIDAZOLINONES AS HERBICIDES” (FMC CORPORATION, priority 2023, published 2026).

Key:
Type in all cases: in vivo
[1] = tested on: green foxtail (Setaria viridis); experiment: Test A preemergence soil spray, visual injury rating 0-100; details: 10 days
Procedure, shortened: (§1)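 Preemergence directed soil spray or postemergence spray (2-10 cm, 1-2 leaf); loam/sand mix; compound in non-phytotoxic solvent + surfactant. Greenhouse, 10 d. Visual injury vs untreated, 0 = none, 100 = complete control.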

[2] = tested on: kochia (Bassia scoparia); experiment: as above; details: 10 days
Procedure, shortened: as §1

[3] = tested on: soybean (Glycine max); experiment: as above; details: 10 days
Procedure, shortened: as §1

[4] = tested on: blackgrass (Alopecurus myosuroides); experiment: as above; details: 10 days
Procedure, shortened: as §1

[5] = tested on: barnyardgrass (Echinochloa crus-galli); experiment: as above; details: 10 days
Procedure, shortened: as §1

[6] = tested on: ryegrass, Italian (italian ryegrass, Lolium multiflorum); experiment: as above; details: 10 days
Procedure, shortened: as §1

[7] = tested on: corn (Zea mays); experiment: as above; details: 10 days
Procedure, shortened: as §1

[8] = tested on: oat, wild (wild oat, Avena fatua); experiment: as above; details: 10 days
Procedure, shortened: as §1

[9] = tested on: wheat (Triticum aestivum); experiment: as above; details: 10 days
Procedure, shortened: as §1

[10] = tested on: ragweed (common ragweed, Ambrosia artemisiifolia); experiment: as above; details: 10 days
Procedure, shortened: as §1

[11] = tested on: rice (Oryza sativa); experiment: Test B flooded paddy test, visual plant response rating 0-100; details: 250 g ai/ha, Flood, applied to paddy water, evaluated after 13 days
Procedure, shortened: (§2)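 Plants were grown to the 2-leaf stage, then pots were flooded to 3 cm above the soil and test compounds were applied directly into the paddy water. Water depth was held there throughout; after 13 days in a greenhouse, injury was scored visually against untreated controls.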

[12] = tested on: barnyardgrass (Echinochloa crusgalli); experiment: as above; details: 250 g ai/ha, Flood, applied to paddy water, evaluated after 13 days
Procedure, shortened: as §2

[13] = tested on: ducksalad (Heteranthera limosa); experiment: as above; details: 250 g ai/ha, Flood, applied to paddy water, evaluated after 13 days
Procedure, shortened: as §2

[14] = tested on: sedge, umbrella (small-flower umbrella sedge, Cyperus difformis); experiment: as above; details: 250 g ai/ha, Flood, applied to paddy water, evaluated after 13 days
Procedure, shortened: as §2

[15] = tested on: horseweed (Erigeron canadensis); experiment: Test A postemergence application, visual injury rating 0-100
Procedure, shortened: as §1

[16] = tested on: galium (catchweed bedstraw, Galium aparine); experiment: as above
Procedure, shortened: as §1

[17] = tested on: green foxtail (Setaria viridis); experiment: as above
Procedure, shortened: as §1

[18] = tested on: kochia (Bassia scoparia); experiment: as above
Procedure, shortened: as §1

[19] = tested on: soybean (Glycine max); experiment: as above
Procedure, shortened: as §1

[20] = tested on: blackgrass (Alopecurus myosuroides); experiment: as above
Procedure, shortened: as §1

[21] = tested on: barnyardgrass (Echinochloa crus-galli); experiment: as above
Procedure, shortened: as §1

[22] = tested on: palmer (palmer amaranth, palmer pigweed, Amaranthus palmeri); experiment: as above
Procedure, shortened: as §1

[23] = tested on: ryegrass, Italian (italian ryegrass, Lolium multiflorum); experiment: as above
Procedure, shortened: as §1

[24] = tested on: corn (Zea mays); experiment: as above
Procedure, shortened: as §1

[25] = tested on: oat, wild (wild oat, Avena fatua); experiment: as above
Procedure, shortened: as §1

[26] = tested on: wheat (Triticum aestivum); experiment: as above
Procedure, shortened: as §1

[27] = tested on: ragweed (common ragweed, Ambrosia artemisiifolia); experiment: as above
Procedure, shortened: as §1

[28] = 62 g ai/ha, 0 = no effect, 100 = complete control
[29] = 62 g ai/ha, postemergence, 10 days, 0 = no effect, 100 = complete control
[30] = Postemergence, 16 g ai/ha, greenhouse 10 days, 0 no effect, 100 complete control

CCOC(=O)C1=CCC(NC(=O)C2(C)CN(c3cc(F)cc(Cl)c3)C(=O)O2)C1 (centres unmarked) [Compound 134]
Foxtail, Green plant response rating ([1]; 16 g ai/ha, 0 to 100 scale): 0 | Foxtail, Green plant response rating (0-100) [1, 28]: 0 | Kochia plant response rating ([2]; 16 g ai/ha, 0 to 100 scale): 0 | Kochia plant response rating (0-100) [2, 28]: 0 | Soybean plant response rating ([3]; 16 g ai/ha, 0 to 100 scale): 0 | Soybean plant response rating (0-100) [3, 28]: 0 | Blackgrass plant response rating ([4]; 16 g ai/ha, 0 to 100 scale): 0 | Blackgrass plant response rating (0-100) [4, 28]: 30 | Barnyardgrass plant response rating ([5]; 16 g ai/ha, 0 to 100 scale): 0 | Barnyardgrass plant response rating (0-100) [5, 28]: 0 | Ryegrass, Italian plant response rating ([6]; 16 g ai/ha, 0 to 100 scale): 0 | Ryegrass, Italian plant response rating (0-100) [6, 28]: 0 | Corn plant response rating ([7]; 16 g ai/ha, 0 to 100 scale): 0 | Corn plant response rating (0-100) [7, 28]: 0 | Oat, Wild plant response rating ([8]; 16 g ai/ha, 0 to 100 scale): 0 | Oat, Wild plant response rating (0-100) [8, 28]: 0 | Wheat plant response rating ([9]; 16 g ai/ha, 0 to 100 scale): 0 | Wheat plant response rating (0-100) [9, 28]: 0 | Ragweed plant response rating ([10]; 16 g ai/ha, 0 to 100 scale): 0 | Ragweed plant response rating (0-100) [10, 28]: 0 | Plant response rating, Rice (0 to 100 scale, 0 is no effect and 100 is complete control) [11]: 0 | Plant response rating, Barnyardgrass (0 to 100 scale, 0 is no effect and 100 is complete control) [12]: 0 | Plant response rating, Ducksalad (0 to 100 scale, 0 is no effect and 100 is complete control) [13]: 0 | Plant response rating, Sedge, Umbrella (0 to 100 scale, 0 is no effect and 100 is complete control) [14]: 0 | Horseweed plant response rating (0-100) [15, 29]: 0 | Horseweed plant response rating (0 to 100 scale) [15, 30]: 0 | Galium plant response rating (0-100) [16, 29]: 0 | Galium plant response rating (0 to 100 scale) [16, 30]: 0 | Foxtail, Green plant response rating (0-100) [17, 29]: 0 | Foxtail, Green plant response rating (0 to 100 scale) [17, 30]: 0 | Kochia plant response rating (0-100) [18, 29]: 0 | Kochia plant response rating (0 to 100 scale) [18, 30]: 0 | Soybean plant response rating (0-100) [19, 29]: 0 | Soybean plant response rating (0 to 100 scale) [19, 30]: 0 | Blackgrass plant response rating (0-100) [20, 29]: 0 | Blackgrass plant response rating (0 to 100 scale) [20, 30]: 0 | Barnyardgrass plant response rating (0-100) [21, 29]: 0 | Barnyardgrass plant response rating (0 to 100 scale) [21, 30]: 0 | Pigweed, Palmer plant response rating (0-100) [22, 29]: 0 | Pigweed, Palmer plant response rating (0 to 100 scale) [22, 30]: 0 | Ryegrass, Italian plant response rating (0-100) [23, 29]: 0 | Ryegrass, Italian plant response rating (0 to 100 scale) [23, 30]: 0 | Corn plant response rating (0-100) [24, 29]: 0 | Corn plant response rating (0 to 100 scale) [24, 30]: 0 | Oat, Wild plant response rating (0-100) [25, 29]: 0 | Oat, Wild plant response rating (0 to 100 scale) [25, 30]: 0 | Wheat plant response rating (0-100) [26, 29]: 0 | Wheat plant response rating (0 to 100 scale) [26, 30]: 0 | Ragweed plant response rating (0-100) [27, 29]: 0 | Ragweed plant response rating (0 to 100 scale) [27, 30]: 0
